{"source": "patent US20050032646A1", "about": "“Agents for the regulation of gametophytic self-incompatibility and a control method for the breakdown of gametophytic self-incompatibility using the agents” (priority 2002, published 2005)", "key": {"[1]": {"system": "style-specific S RNase of Fuji apple", "assay": "Inhibition of the activity of a style-specific S RNase by the agents", "type": "biochemical", "conditions": "optical density at 260 nm (A260), agent 2.0 mM, no treatment 1.10", "description": "Inhibition of S RNase activity by an agent of the present invention was measured as follows: The standard solution of 500 μL of 10 mM sodium phosphate (pH 7.0) with an agent (2.0 mM), and 500 μL of torula yeast rRNA (5 mg/mL) was pre-incubated for 10 min at 37° C. To the substrate solution, the 20 μL of the style-specific S RNase (200 ng) of Fuji apple was added, then the solution was incubated for 30 min at 37° C. A fraction of 200 μL was collected and 40 μL of stop buffer (ice-cold 25% HCIO4, 0.75% uranyl acetate) was added, then mixed and centrifuged at 12,000 rpm for 5 min. And 50 μL of the supernatant was diluted with 950 μL of dd H2O, then the solution was centrifuged and measured the optical density at 260 nm (A260) (Singh A. et al., Plant Physilolgy, 96: 61-68,1991)."}, "[2]": {"system": "Hongro apple", "assay": "Breakdown of the self-incompatibility in Hongro apple (self-pollination rate, field)", "type": "in vivo", "conditions": "25 days after the treatment", "description": "In the field application experiment, Hongro apple (the Rosaceae) which has a very low self-pollination rate (<5%) was isolated single-genetically by covering up whole plants with a fine-meshed net to exclude any pollinating insects. The agent of the present invention was treated enough to get-wet flowers at various concentrations with a micro-spray at 9:00-11:00 AM. The target of the agent was the first-blooming primary apple flower. The self-pollination rate was investigated 25 days after the treatment and compared with no treatment and artificial cross-pollination."}, "[3]": {"system": "Hongro apple flowers", "assay": "Side-effect of the agents toward Hongro apple flowers", "type": "in vivo", "design": "key: 0: no side-effect is observed, and it is same as no treatment of the agents; 1: the side-effect are observed in flowers, but they recover to normal fruition in a week; 2: a fall-out of flowers and 10% decrease in fruition rate; 3: about 40% loss; 4: 60% loss; 5: a severe loss in fruition", "description": "To investigate the side-effect of the agent, various concentrations of the agents were treated to the flowers of Hongro apple."}, "[4]": {"system": "20-Century pear", "assay": "Breakdown of the self-incompatibility in 20-century pear (fertilization rate, field)", "type": "in vivo", "conditions": "600 μM, sprayed 5 and 2 days before full bloom, 14 days after the treatment", "description": "In a field test, 20-Century pear (the Rosaceae) which has self-incompatibility system was isolated single-genetically by covering up selected branches or whole plants with a fine-meshed net to exclude any pollinating insects. The aqueous of 600 μM solution of an agent of the present invention was treated enough to get-wet flowers with a micro-spray at 9:00-11:00 AM. The agent solution was micro-sprayed 2 times; first at 5 days before full bloom and second at 2 days before full bloom. The reference was artificial cross-pollination at full bloom. The fertilization rate was investigated 14 days after the treatment and compared with no treatment and artificial cross-pollination."}, "[5]": {"system": "Safinia purple", "assay": "Breakdown of self-incompatibility and seed production of Safinia purple", "type": "in vivo, Safinia purple (petunia)", "description": "To establish the application method of the SI suppressing agent for the seed production, a field experiment was performed with Safinia purple ( the Solanaceae, a petunia developed by Suntory Ltd).\nTo a 15 cm-radii round pot, were added fine soil (pH 5.6) and 2 gr of complex fertilizer (including N, P, K 8% each) and they were mixed well. Safinia purple of 10 cm height were planted and raised in a green house for 2 weeks. At the period of 30 % bloom the diluted aqueous solutions of Zn(II) propionate or Cu(II) propionate agent were micro-sprayed enough to wet a flower and a style(3 ml). Two days after treatment of the agent, self-pollen was pollinated to its own style and the seed production was investigated. The experiments were repeated twice."}}, "data": [{"smiles": "CCC(=O)[O-].CCC(=O)[O-].[Zn+2]", "note": "[Zn(II) Propionate]", "values": [{"measurement": "OD (2.0 mM)", "setting": "[1]", "value": 0.69}, {"measurement": "self-pollination rate", "setting": "[2]; concentration 0.01 mM", "value": ">10", "unit": "%"}, {"measurement": "self-pollination rate", "setting": "[2]; concentration 0.03 mM", "value": ">30", "unit": "%"}, {"measurement": "self-pollination rate", "setting": "[2]; concentration 0.10 mM", "value": ">50", "unit": "%"}, {"measurement": "self-pollination rate", "setting": "[2]; concentration 0.30 mM", "value": ">50", "unit": "%"}, {"measurement": "self-pollination rate", "setting": "[2]; concentration 1.0 mM", "value": ">50", "unit": "%"}, {"measurement": "side-effect index", "setting": "[3]; 1.0 mM", "value": 0}, {"measurement": "side-effect index", "setting": "[3]; 5.0 mM", "value": 0}, {"measurement": "side-effect index", "setting": "[3]; 20.0 mM", "value": 1}, {"measurement": "fertilization rate", "setting": "[4]", "value": 45, "unit": "%"}, {"measurement": "seed production relative (%) to control", "setting": "[5]; concn 10 μM", "value": 514.3, "unit": "%"}, {"measurement": "self-pollination pollination ratio (%)", "setting": "[5]; concn 10 μM", "value": 29.4, "unit": "%"}, {"measurement": "self-pollination relative (%) to control", "setting": "[5]; concn 10 μM", "value": 1000, "unit": "%"}, {"measurement": "seed production relative (%) to control", "setting": "[5]; concn 30 μM", "value": 442.9, "unit": "%"}, {"measurement": "self-pollination pollination ratio (%)", "setting": "[5]; concn 30 μM", "value": 42.4, "unit": "%"}, {"measurement": "self-pollination relative (%) to control", "setting": "[5]; concn 30 μM", "value": 1400, "unit": "%"}, {"measurement": "seed production relative (%) to control", "setting": "[5]; concn 100 μM", "value": 1057.1, "unit": "%"}, {"measurement": "self-pollination pollination ratio (%)", "setting": "[5]; concn 100 μM", "value": 47.1, "unit": "%"}, {"measurement": "self-pollination relative (%) to control", "setting": "[5]; concn 100 μM", "value": 1600, "unit": "%"}, {"measurement": "seed production relative (%) to control", "setting": "[5]; concn 300 μM", "value": 1128.6, "unit": "%"}, {"measurement": "self-pollination pollination ratio (%)", "setting": "[5]; concn 300 μM", "value": 63.6, "unit": "%"}, {"measurement": "self-pollination relative (%) to control", "setting": "[5]; concn 300 μM", "value": 2100, "unit": "%"}, {"measurement": "seed production relative (%) to control", "setting": "[5]; concn 1000 μM", "value": 1628.6, "unit": "%"}, {"measurement": "self-pollination pollination ratio (%)", "setting": "[5]; concn 1000 μM", "value": 64.5, "unit": "%"}, {"measurement": "self-pollination relative (%) to control", "setting": "[5]; concn 1000 μM", "value": 2000, "unit": "%"}]}]}
